Measured values published in paper PMC5374206, “Anti-bacterial and Anti-biofilm Evaluation of Thiazolopyrimidinone Derivatives Targeting the Histidine Kinase YycG Protein of Staphylococcus epidermidis” (Frontiers in Microbiology, 2017).
In brackets after ≈: the same amount, converted by molar mass.

Columns and labels:
[1] = tested on: S. epidermidis ATCC 12228; assay: MIC tube-dilution assay; format: cell-based; settings: Staphylococcus epidermidis, ATCC12228
Procedure: (§1) The MIC assays of the derivatives of compound 5 against S. epidermidis, S. aureus, MRSA and E. coli were performed by using the methods described previously by Wiegand et al. ([2008]). In brief, two-fold serial dilutions of the derivatives were prepared in tubes containing 4 mL MHB medium, yielding final concentrations from 200 to 0.78 μM. Bacterial cultures were grown overnight and adjusted so that the bacterial suspension turbidity was equivalent to a 0.5 McFarland standard (~1 × 10^8 CFU/mL) and further diluted to 1:200 into MHB medium. The contents in the tubes were mixed thoroughly and incubated at 37°C with shaking at 220 rpm for 16–20 h. The MIC endpoint was defined as the lowest concentration at which there was no visible growth in the tubes. The MBC values were assessed by plating 100 μL samples from each negative (no visible bacterial growth) culture tube from the MIC assays onto blank MHB agar plates. After incubation at 37°C for 24 h, the bacterial colonies on the plates were counted. The MBC was the concentration at which a 99.9% reduction of the original inoculum was observed (Pridmore et al., [2011]). In this assay, all the experiments were performed three times.

S. aureus ATCC 49230 = assay: MIC tube-dilution assay; format: cell-based; settings: Staphylococcus aureus, ATCC49230
Procedure: as §1

[2] = Erythrocyte hemolysis assay; format: cell-based; settings: human, erythrocytes (5% suspension), 37°C; for hemolysis at 1 h, 200 µM: at 200 μM; for hemolysis at 1 h: at MIC (against S epidermidis ATCC 35984)
Procedure: Hemolytic activities of the derivatives were measured on healthy human erythrocytes. A pure suspension of erythrocytes was obtained by washing a blood sample with sterile 0.9% NaCl saline solution. Erythrocytes were resuspended in normal saline to give a 5% solution, then treated with MIC, 4 × MIC or 200 μM of the derivatives for 1 h at 37°C in 96-well microtiter plates. After the incubation and centrifugation at 1,000 g for 10 min, supernatants were transferred to another sterile plate and the absorbance at 570 nm was measured on a spectrophotometric microplate reader. A positive control (100% hemolysis) and a negative control (0% hemolysis) were achieved by incubating with 1% Triton-X 100 and 0.1% DMSO, respectively. Each assay was performed in triplicate and repeated three times.

Cytotoxicity MTT assay = format: cell-based; settings: African green monkey, Vero cells, highest concentration tested 200 μM
Procedure: A Cell Proliferation Kit I (MTT; Roche, Indianapolis, USA) was used to detect the cytotoxicity of the derivatives against Vero cells. Vero cells were added to 96-well microtiter plates at a concentration of 5 × 10^4 cells/well in 100 μL of culture medium. After 24 h, culture medium was replaced by 100 μL serial dilutions of the derivatives (0.78–100 μM) and the cells were incubated for 4 h in an atmosphere of 5% CO2, then 10 μL of the MTT stock solution was added to each well and the plate returned to the 37°C incubator for 4 h. Subsequent to the incubation, the purple formazan salts were dissolved in DMSO, and the absorbance of each well was measured at wavelengths of 595 nm (test) and 655 nm (reference). Cells treated with the solvent (0.1% DMSO) were used as a blank control. The concentration of the derivatives that produced a 50% cytotoxicity effect on Vero cells (CC50) was calculated using Origin v8.0 software (Origin Lab, Northampton, USA).

E. coli ATCC 25922 = assay: MIC tube-dilution assay; format: cell-based, Escherichia coli; settings: E. coli ATCC29522 (head), highest concentration used 200 μM
Procedure: as §1

[3] = tested on: S. epidermidis ATCC 35984; assay: MIC and MBC tube-dilution assay; format: cell-based; settings: Staphylococcus epidermidis; for MBC: ATCC35984, 99.9% reduction of inoculum; for MIC: ATCC35984, MHB, 16–20 h
Procedure: as §1

YycG′ protein = target: T1, YycG′ protein (Staphylococcus epidermidis, UniProt Q5HK19); assay: Inhibition of YycG′ autophosphorylation (Kinase-Glo Luminescent Kinase Assay); format: biochemical; settings: 4 μM ATP; for inhibition of the enzymatic activity of YycG′ protein: 100 μM derivative, 2 μg YycG′ protein; for IC50: Kinase-Glo, 2 μg YycG′, read-out: IC50 (inhibition of autophosphorylation of recombinant YycG′)
T1 construct: made in house; host or cells: E. coli BL21(DE3)
T1 sequence (Q5HK19 384-602 limits assumed): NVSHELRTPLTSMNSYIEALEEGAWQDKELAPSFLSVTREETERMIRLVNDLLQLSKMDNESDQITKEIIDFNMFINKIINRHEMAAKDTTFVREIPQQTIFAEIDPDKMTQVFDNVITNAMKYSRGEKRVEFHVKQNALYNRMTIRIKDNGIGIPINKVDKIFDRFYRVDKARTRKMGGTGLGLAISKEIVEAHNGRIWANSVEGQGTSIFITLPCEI
Procedure: The construction of the recombinant plasmid pET28a-YycG′ (containing the HATPase_c and HisKA domains of YycG) has been previously described (Liu et al., [2014]). After being used to transform E. coli strain BL21(DE3), this recombinant plasmid was induced to express YycG′ protein by 0.4 mM isopropyl-1-thio-β-D-galactopyranoside at 21°C for 12 h. Then, the bacterial cells were disrupted by sonication and centrifuged, the supernatant was purified by Ni–NTA agarose (Qiagen, Los Angeles, CA, USA). The inhibitory activities of the compound 5 derivatives on the ATPase activity of the YycG′ protein were measured using the Kinase-Glo™ Luminescent Kinase Assay (Promega, Madison, WI, USA). Briefly, 2 μg purified YycG′ protein was pre-incubated with a series of dilutions of the derivatives in reaction buffer [40 mM Tris (pH 7.5), 20 mM MgCl2 and 0.1 mg/ml BSA] at room temperature for 30 min, 4 μM ATP was added and incubated for 30 min at room temperature, then Kinase-Glo™ Reagent was added to detect the remaining amount of ATP, as reflected by luminescence intensity (RLU). In parallel, YycG′ protein with no addition of the derivatives was used as the control and ATP only was used as a blank. The rate of inhibition of protein phosphorylation (Rp) by the derivatives was calculated by the following equation: Rp = RLU(YycG^′+derivative+ATP+Kinase−Glo™)−RLU(YycG^′+ATP+Kinase−Glo™)/RLU(ATP+Kinase−Glo™)−RLU(YycG^′+ATP+Kinase−Glo™) × 100 IC50 (the concentration resulting in 50% inhibition of YycG′ protein autophosphorylation) was obtained by using Origin v7.0 software (OriginLab, Northampton, USA).

[4] = tested on: S. epidermidis ATCC 35984 mature biofilms; assay: Cell viability in mature (24 h) biofilms by CLSM with Live/Dead staining; format: cell-based, Staphylococcus epidermidis; settings: 4 × MIC, 16 h, 24 h mature biofilm; for PI fluorescence quantity (dead cells) / SYTO9 fluorescence quantity (viable cells): Image J
Procedure: The effect of the derivatives on cell viability in mature biofilms (24 h old) was determined using the Live/Dead Bacterial Viability method (Live/Dead BacLight, Molecular Probes, USA). […] The mature biofilms were stained with SYTO 9 and propidium iodide at room temperature for 15 min, following gentle washing of the dishes with normal saline, and were observed under a Leica TCS SP5 CLSM with a 63 × 1.4-NA oil-immersion objective. Further, image analysis was performed using IMARIS 7.0.0 software (Bitplane). The fluorescence quantities of biofilm were determined using Image J software. This assay was performed in triplicate and similar results were obtained.

[5] = tested on: S. epidermidis ATCC 35984; assay: Time-kill assay against fast-growing S. epidermidis; format: cell-based, Staphylococcus epidermidis; settings: 4 × MIC
Procedure: Suspensions of S. epidermidis (1 × 10^7 CFU/mL) were prepared and separately treated with the derivatives of compound 5 or vancomycin at concentrations of 4 × MIC in fresh MHB. Time-kill experiments were performed at 37°C with shaking at 220 rpm under aerobic conditions. Aliquots (1 mL) were removed from the culture medium at different time points (0, 1, 3, 5, 8, and 24 h), serially diluted and 100 μL of each of the dilutions plated out onto tryptic soy agar. After incubating at 37°C for 24 h, emergent bacterial colonies were counted, and the activity of the derivatives against fast-growing S. epidermidis cells was determined by plotting log10 colony counts (CFU/mL) against time. Bactericidal activity was defined as a 3-log10 decrease in CFU/mL. This assay was performed in triplicate and similar results were obtained.

[6] = tested on: S. epidermidis ATCC 35984 mature biofilms; set-up: method as in Liu et al., 2014; settings: vancomycin 128 μg/mL; ref Liu et al., 2014; cited from earlier work
[7] = Escherichia coli, ATCC 25922 / ATCC 29522

Compound	MIC [1] [µM]	MIC (S. aureus ATCC 49230) [µM]	hemolysis at 1 h, 200 µM [2] [%]	hemolysis at 1 h [2] [%]	CC50 at 4 h (Cytotoxicity MTT assay) [µM]	MIC (E. coli ATCC 25922; [7]) [µM]	MBC [3] [µM]	MIC [3] [µM]	inhibition of the enzymatic activity of YycG′ protein (YycG′ protein) [%]	IC50 (YycG′ protein) [µM]	PI/Total (reduction of the proportion of viable cells in mature biofilms) [4] [%]	PI fluorescence quantity (dead cells) [4]	SYTO9 fluorescence quantity (viable cells) [4]	MIC (E. coli ATCC 25922) [µM]	time required to achieve a bactericidal effect ([5]; bactericidal = 3-log10 decrease in CFU/mL) [h]	reduction in CFU/mL ([5]; within/after 1 h, inoculum ~1 × 10^7 CFU/mL, MHB)	reduction of living cells in mature biofilm [6] [%]
CCOC(=O)C1=C(c2ccccc2)N=c2s/c(=C\c3ccc(-c4cccc(C(=O)O)c4)o3)c(=O)n2C1c1ccc2c(c1)OCO2 (centres unmarked) [Compound 5, {5-benzo [1,3]dioxol-5-yl-2-[5-(3-carboxy-phenyl)-furan-2-ylmethylene]-3-oxo-7-phenyl-2,3-dihydro-5H-thiazolo [3,2-a]pyrimidine-6-carboxylic} acid ethyl ester]	6.25 (≈ 3.88 µg/mL)	6.25 (≈ 3.88 µg/mL)	0.51 ± 0.06	0.31 ± 0.16	> 200	> 200	25 (≈ 15.5 µg/mL)	6.25 (≈ 3.88 µg/mL)	–	–	–	–	–	–	–	–	–
CCOC(=O)C1=C(c2ccccc2)N=c2sc(=Cc3ccc(-c4cccc(C(=O)O)c4)o3)c(=O)n2C1c1ccc(Cl)cc1 (centres unmarked) [H5-23, 2-{5-(3-carboxy-phenyl)-furan-2-ylmethylene]-5-(4-chloro-phenyl)-3-oxo-7-phenyl-2,3-di-hydro-5H-thiazolo[3,2-a]pyrimidine-6-carboxylic acid ethyl ester]	1.56 (≈ 0.953 µg/mL)	1.56 (≈ 0.953 µg/mL)	0.27 ± 0.01	0.27 ± 0.35	> 200	> 200	25 (≈ 15.3 µg/mL)	1.56 (≈ 0.953 µg/mL)	64.78	77.2	85.7	61.928 ± 5.05	10.333 ± 4.39	>200	–	–	–
COc1ccc(C2C=C(c3ccccc3)N=c3sc(=Cc4ccc(-c5cccc(C(=O)O)c5)o4)c(=O)n32)cc1 (centres unmarked) [H5-24, 3-{5-[5-(4-methoxy-phenyl)-3-oxo-7-phenyl-5H-thiazolo[3,2-a]pyrimidin-2-ylidenemethyl]-furan-2-yl}-benzoic acid]	1.56 (≈ 0.834 µg/mL)	1.56 (≈ 0.834 µg/mL)	0.32 ± 0.05	0.17 ± 0.11	> 200	> 200	50 (≈ 26.7 µg/mL)	1.56 (≈ 0.834 µg/mL)	49.92	82.2	77.5	43.242 ± 5.65	12.554 ± 4.23	>200	–	–	–
O=C(O)c1cccc(-c2ccc(C=c3sc4n(c3=O)C(c3ccc(Cl)cc3)C=C(c3ccccc3)N=4)o2)c1 (centres unmarked) [H5-25, 3-{5-[5-(4-chloro-phenyl)-3-oxo-7-phenyl-5H-thiazolo [3,2-a]pyrimidin-2-ylidenemethyl]-furan-2-yl}-benzoic acid]	1.56 (≈ 0.841 µg/mL)	1.56 (≈ 0.841 µg/mL)	0.39 ± 0.09	0.27 ± 0.01	> 200	> 200	50 (≈ 27 µg/mL)	1.56 (≈ 0.841 µg/mL)	51.42	80.2	43.80	47.687 ± 4.77	61.188 ± 5.49	>200	–	–	–
CN[C@H](CC(C)C)C(=O)N[C@H]1C(=O)N[C@@H](CC(N)=O)C(=O)N[C@H]2C(=O)N[C@H]3C(=O)N[C@H](C(=O)N[C@H](C(=O)O)c4cc(O)cc(O)c4-c4cc3ccc4O)[C@H](O)c3ccc(c(Cl)c3)Oc3cc2cc(c3O[C@@H]2O[C@H](CO)[C@@H](O)[C@H](O)[C@H]2O[C@H]2C[C@](C)(N)[C@H](O)[C@H](C)O2)Oc2ccc(cc2Cl)[C@H]1O [vancomycin, reference compound]	–	–	–	–	–	–	–	–	–	–	–	–	–	–	> 5	~ 1 log	11.4
